Seven compounds from patent US4075332A (priority 1976, dated 1978) can be followed below.

A word on the mortality: it is the percentage killed.

SMILES strings stand for the structures. Where two headings read alike, the source gives them in different places.

Series [1] deals with House fly. The series is described as follows: whole plant or invertebrate. The note with it: Musca domestica, 48 h.
The test system of series [2] is Bean aphids. The series is described as follows: Aphid, Systemic. The note with it: Aphis fabae, 48 h. In kind it is in vivo, bean aphid. The protocol:
(§1) In the insecticidal and miticidal tests, the experimental compounds were tested as aqueous emulsions. These emulsions were prepared by dissolving the compound in acetone and dispersing it in distilled water with Triton X-100, an alkylaryl polyether alcohol derived by the reaction of i-octylphenol with ethylene oxide, to give spray emulsions containing the desired concentrations of the compound. These emulsions were then used in standard laboratory tests described below.
Aphid, Systemic: Nasturtium plants infested with the bean aphid were treated by applying 20 ml. of the formulated test chemical to the soil. The degree of aphid control was rated after 2 days.

The test system of series [3] is Bean aphids. The series can be described thus: whole plant or invertebrate. The note with it: Aphis fabae, 48 h.
Series [4] concerns Spider mites. The series can be described thus: whole plant or invertebrate. Conditions: Tetranychus urticae, 48 h.
For series [5], the system named is Mexican bean beetle. The series is described as follows: whole plant or invertebrate. Conditions: Epilachna varivestis.
In series [6] the test system is Spider mites. The series is described as follows: Mite, Systemic. Conditions: Tetranychus urticae. It is filed as in vivo, two-spotted mite. The protocol: as §1
Mite, Systemic: Bean plants infested with the two-spotted mites were treated by applying 20 ml. of the formulated test chemical to the soil.

Series [7] has as its system Southern army worm. Conditions: southern armyworm, in vivo.
Where [8] appears, read: read-out: Mortality, % - Bean Aphids Systemic.
The mark [9] stands for this setting: read-out: Mortality, % - Bean Aphids Contact.
Setting [10] is: read-out: Mortality, % - Spider Mites Contact.
The mark [11] stands for this setting: read-out: Mortality, % - Mexican Bean Beetles.
Setting [12] is: read-out: Mortality, % - Spider Mites Systemic.
The mark [13] stands for this setting: read-out: Mortality Produced, % - House Flies.
Setting [14] is: read-out: Mortality Produced, % - Bean Aphids Systemic.
The mark [15] stands for this setting: read-out: Mortality Produced, % - Bean Aphids Contact.
[16] abbreviates: read-out: Mortality Produced, % - Spider Mites Contact.
[17] abbreviates: read-out: Mortality Produced, % - Mex.Bean Beetle.
Setting [18] is: read-out: Mortality Produced, % - Spider Mites Systemic.
Where [19] appears, read: read-out: Mortality Produced, % -.

Turning to `CCCSCCSP(=O)(OCC)SCCC` (stereo not drawn) [Example 2, O-Ethyl S-1-Propyl S'-2-n-Propylthioethyl Dithiophosphate], the mortality at 250 ppm in series [1] (read-out: Mortality, % - House Flies) is 100%; in series [2] (setting [8]), 75%; in series [3] (setting [9]), 90%; in series [4] (setting [10]), 100%; in series [5] (setting [11]), 100%; in series [6] (setting [12]), 100%.
With `CCCSP(=O)(OCC)SCCSc1ccc(Cl)cc1` (stereo not drawn) [Example 5, O-Ethyl S-1-Propyl S'-2-p-Chlorophenylthioethyl Dithiophosphate], the mortality at 250 ppm is 10% in series [2] (setting [8]); 95% in series [3] (setting [9]); 100% in series [4] (setting [10]); 100% in series [5] (setting [11]); 40% in series [6] (setting [12]).
In the case of `CCOP(=O)(SCC(C)C)SCC(C)SC` (stereo not drawn) [Example 37, O-Ethyl S-2-Methylpropyl S'-2-Methylthiopropyl Dithiophosphate], the mortality at 50 ppm amounted to 45% in series [1] (setting [13]); 70% in series [2] (setting [14]); 10% in series [3] (setting [15]); 60% in series [4] (setting [16]); 100% in series [5] (setting [17]); 100% in series [6] (setting [18]). For the same compound, the mortality at 250 ppm in series [1] (setting [13]), in series [2] (setting [14]), in series [3] (setting [15]), in series [4] (setting [16]), in series [5] (setting [17]) and in series [6] (setting [18]) was 100% throughout.
As for `CCCSP(=O)(OC)SCC(C)SC` (stereo not drawn) [Example 40, O-Methyl S-1-Propyl S'-2-Methylthiopropyl Dithiophosphate], the mortality at 50 ppm in series [1] (setting [13]) amounted to 100%; in series [2] (setting [14]), 100%; in series [3] (setting [19]), 100%; in series [4] (setting [16]), 100%; in series [5] (setting [17]), 0%; in series [6] (setting [18]) it was 100%. Besides, the mortality at 250 ppm in series [1] (setting [13]), in series [2] (setting [14]), in series [3] (setting [19]), in series [4] (setting [16]), in series [5] (setting [17]) and in series [6] (setting [18]) was 100% each time.
`CCCCSP(=O)(OCC)SCC(C)SC` (stereo not drawn) [Example 41, O-Ethyl S-1-Butyl S'-Methylthiopropyl Dithiophosphate]: the mortality at 50 ppm amounted to 0% in series [1] (setting [13]); 0% in series [2] (setting [14]); 60% in series [3] (setting [15]); 100% in series [4] (setting [16]); 80% in series [5] (setting [17]); 0% in series [6] (setting [18]). Besides, the mortality at 250 ppm in series [1] (setting [13]) came out at 100%; in series [2] (setting [14]) it was 40%; in series [3] (setting [15]), 100%; in series [4] (setting [16]), 100%; in series [5] (setting [17]) it was 100%; in series [6] (setting [18]), 100%. Moreover, the “Mortality Produced, % - S.Army Worm” value in series [7] worked out at 0%.
On to `CCOP(=O)(SCC(C)SC)SC(C)C` (stereo not drawn) [Example 42, O-Ethyl S-2-Propyl S-2-Methylthiopropyl Dithiophosphate], for which the mortality at 50 ppm was determined as 0% in series [1] (setting [13]); 20% in series [2] (setting [14]); 50% in series [3] (setting [15]); 100% in series [4] (setting [16]); 100% in series [5] (setting [17]); 0% in series [6] (setting [18]). Moreover, the mortality at 250 ppm in series [1] (setting [13]) worked out at 100%; in series [2] (setting [14]) it was 80%; in series [3] (setting [15]), 100%; in series [4] (setting [16]), 100%; in series [5] (setting [17]), 100%; in series [6] (setting [18]) it was 100%.
As for `CCOP(=S)(OCC)SCSc1ccc(Cl)cc1` [Trithion, reference compound], the mortality at 20 ppm in series [1] (read-out: House Fly Spray Mortality, % (at 20 ppm)) amounted to 80%. For the same compound, in series [7], the “Southern Army Worm Mortality, %” value is 0%. Further, the mortality at 100 ppm in series [5] (read-out: Mexican Bean Beetle Larvae Mortality, %) worked out at 90%.
